Laboratory results published in patent publication US10610487B2, “Salts of active ingredients with polymeric counterions” (BASF SE, priority 2015, dated 2020).
Values after ≈ are worked out from the molar mass of the structure shown. Where two headings read alike, the source gives them in different places.

Key:
[1] = CD water, 100 mg haloperidol per 250 ml, hard gelatine capsule
physchem = conditions: thermodynamic from solid

Structure (SMILES)	Release of haloperidol ([1]; 0 min) [%]	Release of haloperidol ([1]; 2 min) [%]	Release of haloperidol ([1]; 4 min) [%]	Release of haloperidol ([1]; 6 min) [%]	Release of haloperidol ([1]; 8 min) [%]	Release of haloperidol ([1]; 10 min) [%]	Release of haloperidol ([1]; 30 min) [%]	Release of haloperidol ([1]; 60 min) [%]	Release of haloperidol ([1]; 120 min) [%]	solubility thermodynamic at 72 h (physchem; simulated gastric fluid) [µg/mL]	solubility thermodynamic at 72 h (physchem; water) [µg/mL]
O=C(CCCN1CCC(O)(c2ccc(Cl)cc2)CC1)c1ccc(F)cc1 [Haloperidol, haloperidol]	0.0	0.1	0.2	0.3	0.4	0.6	1.5	1.8	2.3	600 (≈ 1600 µM)	2.6 (≈ 6.92 µM)
CN(C)C(=O)C(CCN1CCC(O)(c2ccc(Cl)cc2)CC1)(c1ccccc1)c1ccccc1 [Loperamide, loperamide]	–	–	–	–	–	–	–	–	–	–	72.3 (≈ 152 µM)
